Laboratory results from ChEMBL document CHEMBL1141471, “Implications for selectivity of 3,4-diarylquinolinones as p38alphaMAP kinase inhibitors” (Bioorg Med Chem Lett, 2008).

How the values were obtained:
[1] = target: T1, Mitogen-activated protein kinase 14 (Homo sapiens, UniProt Q16539); assay: Inhibition of p38alpha assessed as residual activity at 10 uM relative to control
[2] = target: T1, Mitogen-activated protein kinase 14; assay: Inhibition of p38alpha
[3] = target: Mitogen-activated protein kinase 10 (Homo sapiens) (UniProt P53779); assay: Residual activity of JNK3 at 10 uM relative to control
Mitogen-activated protein kinase 10 (Homo sapiens), sequence (P53779 whole entry): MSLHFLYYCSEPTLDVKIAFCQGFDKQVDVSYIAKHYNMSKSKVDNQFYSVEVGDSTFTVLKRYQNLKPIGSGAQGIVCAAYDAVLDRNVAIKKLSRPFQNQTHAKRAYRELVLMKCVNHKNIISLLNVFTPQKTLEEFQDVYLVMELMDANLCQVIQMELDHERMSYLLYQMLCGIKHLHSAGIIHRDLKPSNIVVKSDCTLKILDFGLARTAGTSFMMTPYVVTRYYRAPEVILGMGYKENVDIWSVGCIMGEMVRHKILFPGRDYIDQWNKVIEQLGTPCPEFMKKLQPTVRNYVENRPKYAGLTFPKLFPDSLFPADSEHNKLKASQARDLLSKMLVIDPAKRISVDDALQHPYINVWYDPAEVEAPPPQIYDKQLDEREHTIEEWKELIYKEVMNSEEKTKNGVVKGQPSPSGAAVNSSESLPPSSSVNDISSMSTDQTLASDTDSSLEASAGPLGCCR

[4] = target: T2, Mitogen-activated protein kinase 12 (Homo sapiens) (UniProt P53778); assay: Residual activity of p38-gamma at 10 uM relative to control; format: functional
T2 sequence (whole entry): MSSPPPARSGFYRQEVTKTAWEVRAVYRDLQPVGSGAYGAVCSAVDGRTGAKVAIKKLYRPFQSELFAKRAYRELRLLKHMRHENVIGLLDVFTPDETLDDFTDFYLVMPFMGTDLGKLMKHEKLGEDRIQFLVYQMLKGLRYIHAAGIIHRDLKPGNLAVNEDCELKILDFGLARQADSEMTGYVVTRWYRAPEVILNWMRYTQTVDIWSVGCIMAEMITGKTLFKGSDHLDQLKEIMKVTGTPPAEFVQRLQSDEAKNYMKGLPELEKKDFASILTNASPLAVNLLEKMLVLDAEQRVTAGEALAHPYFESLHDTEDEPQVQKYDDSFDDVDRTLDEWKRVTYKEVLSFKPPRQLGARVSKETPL

[5] = target: Mitogen-activated protein kinase 11 (Homo sapiens) (UniProt Q15759); assay: Residual activity of p38beta at 10 uM relative to control
Mitogen-activated protein kinase 11 (Homo sapiens), sequence (Q15759 whole entry): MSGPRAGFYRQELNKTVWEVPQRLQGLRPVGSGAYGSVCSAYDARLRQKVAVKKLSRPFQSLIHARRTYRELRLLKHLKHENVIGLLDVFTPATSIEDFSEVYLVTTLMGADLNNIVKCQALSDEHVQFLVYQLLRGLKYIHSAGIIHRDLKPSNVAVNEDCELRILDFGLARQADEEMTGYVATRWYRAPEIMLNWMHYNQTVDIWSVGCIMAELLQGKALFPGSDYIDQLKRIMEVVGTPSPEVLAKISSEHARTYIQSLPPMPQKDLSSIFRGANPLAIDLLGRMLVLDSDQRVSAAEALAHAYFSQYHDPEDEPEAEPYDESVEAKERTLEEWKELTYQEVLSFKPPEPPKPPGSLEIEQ

[6] = target: T3, Mitogen-activated protein kinase 9 (Homo sapiens, UniProt P45984); assay: Residual activity of JNK2 at 10 uM relative to control
Target sequence in this assay (P45984 whole entry, looked up): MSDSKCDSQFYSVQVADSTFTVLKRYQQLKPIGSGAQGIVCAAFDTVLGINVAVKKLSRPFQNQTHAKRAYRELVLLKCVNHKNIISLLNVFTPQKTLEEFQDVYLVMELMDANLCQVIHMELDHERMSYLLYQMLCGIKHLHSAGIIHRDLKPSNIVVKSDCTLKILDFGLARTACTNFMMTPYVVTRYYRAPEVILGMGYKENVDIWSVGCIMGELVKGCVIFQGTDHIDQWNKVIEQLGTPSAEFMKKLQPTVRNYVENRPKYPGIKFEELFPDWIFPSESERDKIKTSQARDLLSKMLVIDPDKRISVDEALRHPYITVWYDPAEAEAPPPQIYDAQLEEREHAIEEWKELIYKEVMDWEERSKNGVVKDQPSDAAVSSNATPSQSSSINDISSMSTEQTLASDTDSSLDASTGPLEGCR

[7] = target: T4, Mitogen-activated protein kinase 15 (Homo sapiens) (UniProt Q8TD08); assay: Residual activity of ERK8 at 10 uM relative to control
T4 sequence (whole entry): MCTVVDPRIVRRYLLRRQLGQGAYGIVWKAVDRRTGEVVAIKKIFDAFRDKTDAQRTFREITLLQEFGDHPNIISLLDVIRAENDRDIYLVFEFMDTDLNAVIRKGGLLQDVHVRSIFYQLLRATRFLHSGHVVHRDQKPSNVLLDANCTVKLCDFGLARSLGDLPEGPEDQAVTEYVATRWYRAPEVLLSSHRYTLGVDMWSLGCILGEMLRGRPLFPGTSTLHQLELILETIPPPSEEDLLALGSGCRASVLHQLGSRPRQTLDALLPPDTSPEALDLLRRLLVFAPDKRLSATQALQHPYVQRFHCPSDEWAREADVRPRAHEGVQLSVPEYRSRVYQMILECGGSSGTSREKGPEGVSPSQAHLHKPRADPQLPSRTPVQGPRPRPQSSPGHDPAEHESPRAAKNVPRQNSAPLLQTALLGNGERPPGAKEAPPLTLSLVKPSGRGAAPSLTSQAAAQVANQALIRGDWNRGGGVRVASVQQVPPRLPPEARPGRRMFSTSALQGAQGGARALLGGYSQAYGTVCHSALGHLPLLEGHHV

[8] = target: Mitogen-activated protein kinase 8 (Homo sapiens) (UniProt P45983); assay: Residual activity of JNK1 at 10 uM relative to control
Mitogen-activated protein kinase 8 (Homo sapiens), sequence (P45983 whole entry): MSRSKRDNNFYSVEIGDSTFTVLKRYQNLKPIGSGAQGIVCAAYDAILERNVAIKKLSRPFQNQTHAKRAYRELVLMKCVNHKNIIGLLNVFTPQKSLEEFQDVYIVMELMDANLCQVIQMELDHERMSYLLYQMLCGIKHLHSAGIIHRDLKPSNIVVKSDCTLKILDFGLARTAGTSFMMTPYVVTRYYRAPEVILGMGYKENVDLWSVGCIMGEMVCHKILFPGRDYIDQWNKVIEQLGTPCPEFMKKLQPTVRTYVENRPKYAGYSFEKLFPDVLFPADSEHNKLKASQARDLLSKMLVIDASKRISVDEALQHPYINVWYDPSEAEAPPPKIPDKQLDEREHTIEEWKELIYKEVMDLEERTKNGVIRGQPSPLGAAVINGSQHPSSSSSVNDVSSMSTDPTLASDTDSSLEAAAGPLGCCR

[9] = target: T5, Mitogen-activated protein kinase 13 (Homo sapiens) (UniProt O15264); assay: Residual activity of p38delta at 10 uM relative to control
T5 sequence (whole entry): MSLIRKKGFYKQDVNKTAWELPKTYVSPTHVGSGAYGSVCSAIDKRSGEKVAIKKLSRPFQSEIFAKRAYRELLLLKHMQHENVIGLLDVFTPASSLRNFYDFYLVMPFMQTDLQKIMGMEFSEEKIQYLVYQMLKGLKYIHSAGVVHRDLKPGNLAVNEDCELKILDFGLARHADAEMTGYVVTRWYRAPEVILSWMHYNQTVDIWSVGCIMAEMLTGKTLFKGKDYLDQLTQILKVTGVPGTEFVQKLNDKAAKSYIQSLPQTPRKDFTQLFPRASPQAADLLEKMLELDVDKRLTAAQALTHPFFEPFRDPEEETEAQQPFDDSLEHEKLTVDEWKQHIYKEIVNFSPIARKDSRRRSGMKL

[10] = target: Mitogen-activated protein kinase 1 (Homo sapiens) (UniProt P28482); assay: Residual activity of ERK2 at 10 uM relative to control
Mitogen-activated protein kinase 1 (Homo sapiens), sequence (P28482 whole entry): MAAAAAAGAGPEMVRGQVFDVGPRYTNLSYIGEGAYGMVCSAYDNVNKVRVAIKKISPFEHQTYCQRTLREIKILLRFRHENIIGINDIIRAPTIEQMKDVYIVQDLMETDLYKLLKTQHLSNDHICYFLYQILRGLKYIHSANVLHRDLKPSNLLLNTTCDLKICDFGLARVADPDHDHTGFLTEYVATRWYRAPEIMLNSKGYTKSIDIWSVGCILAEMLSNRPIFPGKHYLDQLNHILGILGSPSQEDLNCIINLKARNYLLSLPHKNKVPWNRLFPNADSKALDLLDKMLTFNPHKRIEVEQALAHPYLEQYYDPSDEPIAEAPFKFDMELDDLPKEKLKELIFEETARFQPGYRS

[11] = target: Mitogen-activated protein kinase 3 (Homo sapiens) (UniProt P27361); assay: Inhibition of ERK1 assessed as residual activity at 10 uM relative to control
Mitogen-activated protein kinase 3 (Homo sapiens), sequence (P27361 whole entry): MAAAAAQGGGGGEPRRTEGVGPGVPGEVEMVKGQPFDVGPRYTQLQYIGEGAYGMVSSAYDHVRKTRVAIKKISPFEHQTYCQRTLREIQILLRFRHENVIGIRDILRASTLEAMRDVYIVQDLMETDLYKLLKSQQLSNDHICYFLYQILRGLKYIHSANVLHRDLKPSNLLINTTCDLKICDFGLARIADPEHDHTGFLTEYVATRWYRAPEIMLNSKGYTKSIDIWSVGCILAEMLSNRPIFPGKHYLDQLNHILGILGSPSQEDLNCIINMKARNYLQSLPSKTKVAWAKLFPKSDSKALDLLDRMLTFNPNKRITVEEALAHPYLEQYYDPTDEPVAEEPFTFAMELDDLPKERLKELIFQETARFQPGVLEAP

[12] = target: T3, Mitogen-activated protein kinase 9; assay: Inhibition of JNK2
Target sequence in this assay (P45984 whole entry): as the sequence (P45984 whole entry, looked up) above

[13] = target: T6, Serine/threonine-protein kinase D1 (Homo sapiens) (UniProt Q15139); assay: Inhibition of PKD1; values are per cent of control
T6 sequence (whole entry): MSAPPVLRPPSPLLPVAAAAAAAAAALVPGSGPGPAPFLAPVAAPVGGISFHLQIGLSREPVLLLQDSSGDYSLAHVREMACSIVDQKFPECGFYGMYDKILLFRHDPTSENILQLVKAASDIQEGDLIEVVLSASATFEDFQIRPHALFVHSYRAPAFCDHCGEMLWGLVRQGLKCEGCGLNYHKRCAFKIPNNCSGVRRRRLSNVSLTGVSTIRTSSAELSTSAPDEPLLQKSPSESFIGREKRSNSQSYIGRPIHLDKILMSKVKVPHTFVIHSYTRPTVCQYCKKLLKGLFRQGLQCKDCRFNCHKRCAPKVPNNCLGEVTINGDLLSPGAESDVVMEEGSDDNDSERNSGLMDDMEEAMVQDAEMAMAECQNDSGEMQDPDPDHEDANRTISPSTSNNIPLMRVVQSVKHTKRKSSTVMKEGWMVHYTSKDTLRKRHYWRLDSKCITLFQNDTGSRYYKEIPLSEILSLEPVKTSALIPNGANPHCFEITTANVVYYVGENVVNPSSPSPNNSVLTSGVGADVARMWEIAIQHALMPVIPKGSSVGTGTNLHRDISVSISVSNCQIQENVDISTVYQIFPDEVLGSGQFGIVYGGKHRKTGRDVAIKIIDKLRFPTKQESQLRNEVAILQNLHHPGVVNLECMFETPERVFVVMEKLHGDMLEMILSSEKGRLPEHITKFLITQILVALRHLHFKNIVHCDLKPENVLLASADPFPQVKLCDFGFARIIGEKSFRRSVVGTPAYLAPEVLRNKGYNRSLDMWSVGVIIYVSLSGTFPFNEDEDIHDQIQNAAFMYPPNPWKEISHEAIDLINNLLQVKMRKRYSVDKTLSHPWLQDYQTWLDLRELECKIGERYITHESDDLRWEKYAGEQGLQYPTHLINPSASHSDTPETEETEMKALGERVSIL

[14] = Inhibition of PKA; values are per cent of control
[15] = target: Tyrosine-protein kinase Lck (Homo sapiens) (UniProt P06239); assay: Inhibition of Lck; values are per cent of control
Tyrosine-protein kinase Lck (Homo sapiens), sequence (P06239 2-509 limits assumed): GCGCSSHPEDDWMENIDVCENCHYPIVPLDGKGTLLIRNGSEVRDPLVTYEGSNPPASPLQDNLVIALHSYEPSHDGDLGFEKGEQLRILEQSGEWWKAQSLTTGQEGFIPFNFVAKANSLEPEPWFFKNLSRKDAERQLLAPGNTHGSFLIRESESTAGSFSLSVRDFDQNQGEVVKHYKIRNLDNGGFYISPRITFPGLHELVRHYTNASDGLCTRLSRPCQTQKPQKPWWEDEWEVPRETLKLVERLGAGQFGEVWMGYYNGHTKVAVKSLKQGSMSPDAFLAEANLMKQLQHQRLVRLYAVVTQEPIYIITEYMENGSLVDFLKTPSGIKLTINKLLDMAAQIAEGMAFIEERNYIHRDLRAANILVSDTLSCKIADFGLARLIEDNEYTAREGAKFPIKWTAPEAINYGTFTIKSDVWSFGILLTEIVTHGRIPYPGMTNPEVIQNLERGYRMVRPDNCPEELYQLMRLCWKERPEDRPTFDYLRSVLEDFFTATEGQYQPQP

[16] = Inhibition of Aurora C; values are per cent of control
[17] = target: Aurora kinase B (Homo sapiens) (UniProt Q96GD4); assay: Inhibition of Aurora B; values are per cent of control
Aurora kinase B (Homo sapiens), sequence (Q96GD4 whole entry): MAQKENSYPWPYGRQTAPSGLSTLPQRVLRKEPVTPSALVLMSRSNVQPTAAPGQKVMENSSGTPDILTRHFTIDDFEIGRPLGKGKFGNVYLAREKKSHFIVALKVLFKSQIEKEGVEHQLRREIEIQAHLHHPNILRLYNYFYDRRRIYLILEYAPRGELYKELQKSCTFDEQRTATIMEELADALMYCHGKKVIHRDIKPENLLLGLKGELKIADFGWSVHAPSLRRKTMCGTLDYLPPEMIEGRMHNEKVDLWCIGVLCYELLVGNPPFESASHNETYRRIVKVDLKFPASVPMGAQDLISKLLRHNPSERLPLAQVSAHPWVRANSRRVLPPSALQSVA

T1 sequence (Q16539 whole entry): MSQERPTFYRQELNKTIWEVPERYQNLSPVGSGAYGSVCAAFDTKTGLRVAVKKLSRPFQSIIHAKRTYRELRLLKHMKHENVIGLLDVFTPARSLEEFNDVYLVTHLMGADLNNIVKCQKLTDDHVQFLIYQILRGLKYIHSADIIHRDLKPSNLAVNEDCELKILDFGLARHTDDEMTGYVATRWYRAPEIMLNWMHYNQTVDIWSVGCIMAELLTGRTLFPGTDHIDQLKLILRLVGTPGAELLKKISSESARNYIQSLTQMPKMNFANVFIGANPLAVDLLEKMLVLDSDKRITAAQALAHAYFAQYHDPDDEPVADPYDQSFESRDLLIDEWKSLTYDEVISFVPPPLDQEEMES

In the case of `CC1(C)OCC(Cn2c(=O)c(-c3ccc(F)cc3)c(-c3ccncc3)c3ccccc32)O1` (stereo not drawn), the Activity [1] is reported as 55%.

`CCOc1nc2ccccc2c(-c2ccncc2)c1-c1ccc(F)cc1` showed an Activity [1] of 66%.

With `CC#Cn1c(=O)c(-c2ccc(F)cc2)c(-c2ccncc2)c2ccccc21` the IC50 [2] was 3.1 µM.

`O=c1[nH]c2ccccc2c(-c2ccncc2)c1-c1ccc(F)cc1` showed an Activity [3] of 106%, an Activity [1] of 53% and an Activity [4] of 89%. It also gave an Activity [5] of 97%, an Activity [6] of 89% and an Activity [7] of 73%. For the same compound, the Activity [8] was 86%, the Activity [9] was 91% and the Activity [10] was 93%. It also gave an Activity [11] of 84%.

Work on `CCC(O)C(O)n1c(=O)c(-c2ccccc2C)c(-c2ccncc2)c2ccccc21` (stereo not drawn) yielded an Activity [1] of 80%.

For `CCn1c(=O)c(-c2ccc(F)cc2)c(-c2ccncc2)c2ccccc21`, the IC50 [2] was 2.2 µM.

For `CC(C)c1onc(-c2ccc(F)cc2)c1-c1ccncc1`, the IC50 [12] was 1.28 µM, the Activity [3] was 28% and the Activity [1] was 20%. It also gave an Activity [4] of 84%, an Activity [5] of 95% and an Activity [6] of 13%. The residual activity [13] was 60%, the Activity [7] was 84% and the Activity [8] was 67%. The residual activity [14] was 28%, the Activity [9] was 86% and the residual activity [15] was 42%. For the same compound, the Activity [10] was 86% and the Activity [11] was 92%.

In the case of `CC#COc1nc2ccccc2c(-c2ccncc2)c1-c1ccc(F)cc1`, the Activity [1] is reported as 79%.

With `O=c1cc(-c2ccncc2)c2ccccc2[nH]1` the Activity [1] was 78%.

Work on `O=c1[nH]c2ccccc2c(-c2ccccc2)c1-c1ccccc1` yielded an Activity [1] of 64%.

With `Cc1ccccc1-c1c(-c2ccncc2)c2ccccc2[nH]c1=O` the IC50 [2] was 9.7 µM.

With `Cn1c(=O)c(-c2ccc(F)cc2)c(-c2ccncc2)c2ccccc21` the IC50 [2] was 5.2 µM.

`O=c1c(-c2ccc(F)cc2)c(-c2ccncc2)c2ccccc2n1CCc1ccccc1` showed an IC50 [2] of 8.2 µM.

Work on `CC(C)c1noc(-c2ccc(F)cc2)c1-c1ccncc1` yielded an Activity [3] of 63%, an Activity [1] of 50% and an Activity [4] of 94%. It also gave an Activity [5] of 98%, an Activity [6] of 59% and a residual activity [16] of 35%. It also gave an Activity [7] of 88%, a residual activity [17] of 22% and an Activity [8] of 98%. For the same compound, the Activity [9] was 95%, the Activity [10] was 88% and the Activity [11] was 87%.

`CCC(O)C(O)n1c(=O)c(-c2ccc(F)cc2)c(-c2ccncc2)c2ccccc21` (stereo not drawn) showed an Activity [1] of 57%.
